Measured values reported in patent US20120190707A1, “SELECTIVE INHIBITORS OF AKT AND METHODS OF USING SAME” (priority 2008, published 2012).
Like-named read-outs stand apart in the source and are kept apart here.

Tests used:
Akt1 = Akt1 (Homo sapiens, UniProt P31749); test: Akt1 inhibition, Z'-LYTE kit fluorescent-enzymatic assay; format: biochemical
Description: Here the top 4000 compounds out of 50000 docked compounds were selected using FlexX and Drugscore (BioSolvIT). The top 4000 docked structures were further evaluated and ranked according to Goldscore and Chemscore functions (CSCORE). A list of common 200 compounds was then selected among ranked top 700 compounds according to both scoring functions (FIG. 1B). […] The remaining 100 compounds were experimentally tested up to 30 μM against Akt1. The inhibitory activity was evaluated for the selected compounds by using Z'-LYTE™ kit assay provided by Invitrogen Corporation (19). […] Corning® 384-well low volume plates (20 μl) were used. The fluorescent-enzymatic assay has been performed following the protocol provided by Invitrogen Corporation, using a fluorescent plate reader (Victor2, Perkin-Elmer). […] C) Lineweaver-Burk Km and Km(app) evaluation for Akt1. Each measurement was performed in triplicate. […] The Ki and the Km(app) were calculated at fixed inhibitor concentrations, as reported in the text. All constant values were definitely evaluated by fitting the data to the Lineweaver-Burk plot; D) Akt1 inhibition assay using GSK-3 as a substrate. Comparison of compounds 1 and 2 (Table 1) with H89 at 10 μM. E) Dose response for compound 1. Akt (10 ng of recombinant enzyme) in 25 μl 1× kinase buffer (25 mM Tris, pH 7.5; 5 mM n-glycerol phosphate; 2 mM dithiothreitol; 0.1 mM Na3VO4; and 10 mM MgCl2), was mixed with 2.5 μl DMSO (1% stock) or MPA-D (100 μM in 1% DMSO). Samples were incubated on ice for 1.5 hours at which time 1 μg of GSK-3 fusion protein (Cell Signaling), which served as the substrate, was added followed by ATP (200 μM) to each reaction mixture. After the suspensions were incubated at 30° C. for 20 min, the reaction was terminated by the addition of 3×SDS sample buffer (187.5 mM Tris-HCl, pH 6.8; 6% SDS; 30% glycerol; 150 mM dithiothreitol; and 0.03% bromophenol blue). The samples were boiled for 5 min, and the proteins were separated on a 12% SDS polyacrylamide gel and subsequently transferred to a nitrocellulose membrane. Membranes were incubated with rabbit polyclonal anti-phospho-GSK-3α/β (Ser21/9) (Cell Signaling).
For these purposes, we initially determined the Km and the Vmax of the enzymatic reaction involving the peptide provided by the Z'-LYTE™ kit assay and Akt1 by varying the concentration of ATP. The above parameters appeared to be 7.9 μM and 0.0205 μmol min^−1 mg^−1, respectively. […] Because all our inhibitors affected the Km rather than the Vmax of the reaction (FIG. 2C), they can be truly considered ATP-competitive inhibitors of Akt1.

PI3K = test: Activity of other protein kinases: PI3K; format: biochemical; details: 100 micro.M
Description: We recently reported on the direct evaluation of a number of in silico approaches to identify AKT inhibitors (Forino et al., 2005) We achieved experimental validation of selected compounds using both a fluorescence-based enzymatic assay and a substrate phosphorylation assay involving the protein GSK-3 (Forino et al., 2005). Briefly, the virtual docking approach consists of selecting the top 4,000 out of 50,000 docked compounds, using a variety of computational docking approaches, including a consensus score among two different scoring functions (Forino et al., 2005). Of those, 100 compounds were selected based on ranking and favorable docking geometry.

UACC903 melanoma cells = test: Cell death by trypan blue exclusion in UACC903 compared with 29-1 cells; format: cell-based, human
Description: (A) 903 and 29-1 cells were exposed to different concentrations of BI-69A11 or UV light as a positive control and the percentage of cell death determined by trypan blue exclusion assay. (B) PARP cleavage was determined in 903 and 29-1 cells after treatment with BI-69A11 at 2, 4 and 6 hours.
Since AKT activity is important for tumor cell survival, its inhibition is expected to result in cell death. We thus monitored cell death in melanoma cells that were treated with BI-69A11.
For the proliferation assays, cells were treated as described above. However, instead of scraping cells into the serum-free medium, floating cells were collected in a 15 mL centrifuge tube whereas adherent cells trypsinized gently. The total cell population was pooled and counted on a hemocytometer after staining with Trypan Blue. The percentage of dead cells was determined by calculating the number of dead cells/total cells X 100. This experiment was performed two times each in triplicate.

ATM-CHK2 axis = test: ATM and CHK2 phosphorylation (DNA damage response) western analysis in UACC903 cells; format: cell-based, human
Description: UACC903 melanoma cells were exposed to vehicle control or 10 μM BI-69A11 for 1 h prior to γ-irradiation (10 Gray). Cells were harvested at the indicated time points post-irradiation and whole cell lysates were subjected to western analysis for phosphorylated ATM, total ATM, phosphorylated Chk2, and PLCγ (as loading control).
FIG. 14 is an assessment of BI-69A11 analogs on Chk2 phosphorylation. UACC903 melanoma cells were exposed to vehicle control, 10 μM BI-69A11, or 10 μM analog for 2 h. Cells were harvested and whole cell lysates were subjected to western analysis for phosphorylated Chk2 and PLCγ (as loading control).
To accomplish this, we g-irradiated vehicle- or BI69A11-treated cells and examined ATM and CHK2 phosphorylation, a well-characterized surrogate of activation (FIG. 13). In vehicle-treated cells, g-irradiation led to the robust phosphorylation of ATM and CHK2.
We next examined the panel of BI-69A11 analogs for their ability to stimulate CHK2 phosphorylation in UACC903 cells (FIG. 14).
For western blotting techniques, cells were lysed in RIPA buffer containing 50 mM TrisHCl pH7.4, 150 mM NaCl, 2 mM EDTA, 1% NP-40, 0.1% SDS. The protein concentration was estimated using the Coomassie Protein assay kit (Thermo Scientific, Rockford, Ill., USA). Equal concentrations of cell lysate (30-50 ug) were resolved on a 10% polyacrylamide gel and transferred onto Nitrocellulose membrane (GE Amersham). Membranes were blocked for 1-2 hours in either 3% BSA or 5% nonfat dried milk in Tris-buffered saline containing 0.05% Tween 20. Primary antibody incubations were performed overnight at 4° C. with shaking. The blots were washed followed by incubation with a secondary antibody incubation for 1 hour at room temperature. After washing, the blots were scanned on the Odyssey Licor scanner at the appropriate wavelength and the image was captured using the Odyssey software.

Akt1, sequence (P31749 whole entry): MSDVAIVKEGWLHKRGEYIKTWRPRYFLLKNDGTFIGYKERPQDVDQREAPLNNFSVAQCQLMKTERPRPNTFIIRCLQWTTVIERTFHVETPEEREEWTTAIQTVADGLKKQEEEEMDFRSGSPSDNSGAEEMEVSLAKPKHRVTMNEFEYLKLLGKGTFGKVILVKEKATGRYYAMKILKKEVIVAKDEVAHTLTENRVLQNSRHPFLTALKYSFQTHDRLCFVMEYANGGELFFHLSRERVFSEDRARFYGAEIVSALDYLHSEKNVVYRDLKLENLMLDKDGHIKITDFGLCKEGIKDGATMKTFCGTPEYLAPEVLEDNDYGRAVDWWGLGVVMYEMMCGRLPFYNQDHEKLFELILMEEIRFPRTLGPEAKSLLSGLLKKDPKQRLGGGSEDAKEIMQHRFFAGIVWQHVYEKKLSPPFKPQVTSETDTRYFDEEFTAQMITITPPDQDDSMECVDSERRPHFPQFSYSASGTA

With `O=C(/C=C/c1nc2ccccc2[nH]1)c1c(O)nc2ccc(Cl)cc2c1-c1ccccc1` [Compound 2, (E)-3-(3-(1H-benzo[d]imidazol-2-yl)acryloyl)-6-chloro-4-phenylquinolin-2(1H)-one] the “IC50 values (in words)” value (Akt1) was “low-micromolar range”, the Ki (Akt1; 10 μM compound 1, 20 μM compound 2, 50 μM compound 3, increasing ATP, Lineweaver-Burk) was 3.9 µM and the IC50 (Akt1; AKT1, Example 2 (Forino et al., 2005), read-out: IC50 values) was 2.3 µM. The IC50 (Akt1; FIG. 2 legend, read-out: IC50 value) was 4.5 µM, the “type of inhibition of Akt1” value (Akt1; affected Km rather than Vmax) was “ATP competitive inhibition” and the “effect on PI3K activity” value (PI3K) was “did not affect”. For the same compound, the “cell death, PTEN mutant melanoma cells compared with 29-1 cells” value (UACC903 melanoma cells; FIG. 7A) was “more pronounced on PTEN mutant melanoma cells”, the “cell death of melanoma cells” value (UACC903 melanoma cells; concentrations as low as 1 micro.M, within 24 hours) was “effective cell death” and the “ATM and CHK2 phosphorylation in the absence of radiation” value (ATM-CHK2 axis; 10 μM) was “leads to ATM and CHK2 phosphorylation”. The “ATM or CHK2 phosphorylation following g-irradiation” value (ATM-CHK2 axis; 10 μM for 1 h prior to γ-irradiation (10 Gray)) was “did not inhibit” and the “CHK2 phosphorylation / activation” value (ATM-CHK2 axis; 10 μM for 2 h) was “induced the activation of CHK2 to a similar extent”.
